Among the data in US10323000B2, “Indole derivatives and their use in neurodegenerative diseases” (priority 2014, dated 2019) are IC50 values, retold here.

Read-outs that look alike come from different tables or passages of the source.

One test deals with human P2X7 receptor (Homo sapiens (Human), UniProt Q99572). Kind of test: Pore permeation assay (YO PRO dye uptake). It is filed as cell-based. On the procedure: Agonist-induced pore formation was determined by measuring cellular uptake of YO PRO fluorescence dye in HEK293 transfected with human P2X7 receptor. A HEK293 cell over expressing human P2X7 was harvested using HQTase reagent to detach the cells from T75 cm flask. The harvested cells are centrifuged @1200 rpm for 5 min at room temperature. The viability of cells was determined by Trypan blue dye and the cells are plated @10,000 cell/well in 50 ul volume in a 384W BD Poly lysine coated plate and incubated overnight at 37 C. […] The plate was centrifuged at 1000 rpm for 5 seconds and incubated at room temperature for 30 minutes. The uptake of YO PRO dye into the cells was measured using Envision Fluorescence plate reader instrument (Perkin Elmer).
human P2X7 receptor, sequence (Q99572 whole entry): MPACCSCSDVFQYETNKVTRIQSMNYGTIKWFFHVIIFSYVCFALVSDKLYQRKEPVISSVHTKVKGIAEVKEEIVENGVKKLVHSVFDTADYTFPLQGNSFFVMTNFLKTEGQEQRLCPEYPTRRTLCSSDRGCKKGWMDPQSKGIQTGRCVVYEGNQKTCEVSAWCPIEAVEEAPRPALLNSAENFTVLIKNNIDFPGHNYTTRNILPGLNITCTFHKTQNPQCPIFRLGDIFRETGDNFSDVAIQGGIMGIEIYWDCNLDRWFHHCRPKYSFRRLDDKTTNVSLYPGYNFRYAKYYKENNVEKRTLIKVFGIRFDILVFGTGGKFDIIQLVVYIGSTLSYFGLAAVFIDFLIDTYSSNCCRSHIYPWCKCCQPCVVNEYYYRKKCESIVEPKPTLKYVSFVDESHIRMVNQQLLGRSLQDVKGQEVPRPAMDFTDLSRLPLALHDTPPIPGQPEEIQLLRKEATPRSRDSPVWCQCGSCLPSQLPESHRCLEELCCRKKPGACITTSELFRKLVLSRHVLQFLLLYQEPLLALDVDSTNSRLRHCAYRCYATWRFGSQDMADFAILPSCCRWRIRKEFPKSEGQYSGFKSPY

Test [1] has as its target P2X7 (IL-1β release from THP-1 cells) (Homo sapiens (Human), UniProt Q99572). The test is described as follows: IL-1β release assay. Type of test: cell-based. The protocol:
IL-1β release assay: The activation of P2X7 by ATP leads to a fast transient activation of cells resulting in influx of Ca^2+ followed by conversion of pro-IL-1β to active IL-1β. The functional activity of P2X7 compounds was measured by the release of mature […] in the culture medium of THP-1 cells, detected by sandwich ELISA. […] THP-1 cells were harvested from the flask in 50 ml by centrifugation for 3 min at 100 g. The cells were resuspended to 2×10^5 cells/ml in medium supplemented with 0.5 μM PMA and incubated. The cells were washed and resuspended to 1.5×10^5 cells/ml in medium complemented with 10 ng/ml LPS, and the cells were primed for 4 h at 37° C., 5% CO2. After addition of 20 μL of prediluted test compounds, blank, standard and control reagents, cells were incubated for a further 20 min at 37° C. and stimulated with 0.8 mM BzATP for 30 minutes. The cells were centrifuged, supernatant was collected and the presence of mature IL-1β was detected using Dual human IL-1b kit following manufacturer's instruction. The tetrahydrobenzodiazepine analogs effectively modulated the activity of P2X7 in the cells as measured by the levels of pro-inflammatory cytokine IL-1β, which is released by the activation of P2X7 receptor.

[2] abbreviates: HEK293 transfected with human P2X7, BzATP 10 uM, YO PRO dye uptake, read-out: hP2X7 IC50.
[3] abbreviates: THP-1 cells, LPS primed, 0.8 mM BzATP, mature IL-1β by sandwich ELISA, read-out: hTHP-1/IL-ib IC50.

P2X7 (IL-1β release from THP-1 cells), sequence (Q99572 whole entry): as above

As to `CN1CC(F)(F)C[C@H]1Cn1cc(C(=O)NCC2CCC(F)(F)CC2)c2c(Cl)cccc21` [Compound 180, (S)-4-chloro-1-((4,4-difluoro-1-methylpyrrolidin-2-yl)methyl)-N-((4,4-difluorocyclohexyl)methyl)-1H-indole-3-carboxamide], the IC50 on human P2X7 receptor is 101 to 500 nM; in test [1], 500 to 999 nM.
The like results for `CCN(CC)C(=O)Cn1cc(C(=O)NCC2CCC(F)(F)CC2)c2c(Cl)cccc21` [Compound 207, 4-Chloro-1-diethylcarbamoylmethyl-1H-indole-3-carboxylic acid (4,4-difluoro-cyclohexylmethyl)-amide] were, in that order, 10 to 100 nM and 101 to 500 nM.
The like results for `O=C(NCC1CCC(F)(F)CC1)c1cn(CCOC2CC2)c2cccc(Cl)c12` [Compound 149, 4-chloro-1-(2-cyclopropoxyethyl)-N-((4,4-difluorocyclohexyl)methyl)-1H-indole-3-carboxamide] were, in that order, 10 to 100 nM and 101 to 500 nM.
The like results for `O=C(NCC1C[C@@H]2CC[C@H]1C2)c1cn(C2COC2)c2cccc(Cl)c12` (stereo partly drawn) [Compound 59, 4-Chloro-1-oxetan-3-yl-1H-indole-3-carboxylic acid ((1S,4R)-1-bicyclo[2.2.1]hept-2-ylmethyl)-amide] were, in that order, 10 to 100 nM and 10 to 100 nM.
With `O=C(NCC1CCC(F)(F)CC1)c1cn(CC2CCCN2C2CC2)c2cccc(Cl)c12` (stereo not shown) [Compound 197, 4-chloro-1-((1-cyclopropylpyrrolidin-2-yl)methyl)-N-((4,4-difluorocyclohexyl)methyl)-1H-indole-3-carboxamide], the IC50 (against human P2X7 receptor; in test [1]) was 10 to 100 nM throughout.
As to `O=C(NC[C@@]1(O)CCCC(F)(F)C1)c1cn(CCN2CCCC2)c2cccc(Cl)c12` [Compound 176, (R)-4-chloro-N-((3,3-difluoro-1-hydroxycyclohexyl)methyl)-1-(2-(pyrrolidin-1-yl)ethyl)-1H-indole-3-carboxamide], the IC50 (on human P2X7 receptor (setting [2]); in test [1] (setting [3])) was more than 1000 nM in each case.
Consider `O=C(NCC1CCC(F)(F)CC1)c1cn(CC2CCCCO2)c2cccc(Cl)c12` (stereo not shown) [Compound 167, 4-chloro-N-((4,4-difluorocyclohexyl)methyl)-1-((tetrahydro-2H-pyran-2-yl)methyl)-1H-indole-3-carboxamide], for which the IC50 (at human P2X7 receptor; in test [1]) was 10 to 100 nM throughout.
On to `CC(C)N1CCCC1Cn1cc(C(=O)NCC2CCC(F)(F)CC2)c2c(Cl)cccc21` (stereo not shown) [Compound 196, 4-chloro-N-((4,4-difluorocyclohexyl)methyl)-1-((1-isopropylpyrrolidin-2-yl)methyl)-1H-indole-3-carboxamide], for which the IC50 was in the range of 10 to 100 nM against human P2X7 receptor and 101 to 500 nM in test [1].
The like results for `COCCn1cc(C(=O)NCCc2cccs2)c2c(Cl)cccc21` [Compound 30, 4-Chloro-1-(2-methoxy-ethyl)-1H-indole-3-carboxylic acid (2-thiophen-2-yl-ethyl)-amide] were, in that order, 10 to 100 nM and 101 to 500 nM.
With `O=C(NCC1CCC(F)(F)CC1)c1cn(CC(F)(F)F)c2cccc(Cl)c12` [Compound 5, 4-chloro-N-((4,4-difluorocyclohexyl)methyl)-1-(2,2,2-trifluoroethyl)-1H-indole-3-carboxamide], the IC50 against human P2X7 receptor lay within 10 to 100 nM; in test [1] it was 101 to 500 nM.
Take `O=C(NCC1CCCC2(CC2)C1)c1cn(C2COC2)c2cccc(Cl)c12` (stereo not shown) [Compound 68, 4-chloro-1-(oxetan-3-yl)-N-(spiro[2.5]octan-5-ylmethyl)-1H-indole-3-carboxamide]: the values for the IC50 (at human P2X7 receptor (setting [2]); in test [1]) were less than 10 nM and 10 to 100 nM, respectively.
Regarding `CN1CCCC1Cn1cc(C(=O)NCC2CCC(F)(F)CC2)c2c(Cl)cccc21` (stereo not shown) [Compound 170, 4-chloro-N-((4,4-difluorocyclohexyl)methyl)-1-((1-methylpyrrolidin-2-yl)methyl)-1H-indole-3-carboxamide], the IC50 (at human P2X7 receptor; in test [1]) was 10 to 100 nM in each case.
For the compound `C[C@@H]1CCC[C@](O)(CNC(=O)c2cn(CCC(F)F)c3cccc(Cl)c23)C1` [Compound 8, 4-Chloro-1-(3,3-difluoro-propyl)-1H-indole-3-carboxylic acid ((1R,3R)-1-hydroxy-3-methyl-cyclohexylmethyl)-amide], the IC50 against human P2X7 receptor is 10 to 100 nM; in test [1], 101 to 500 nM.
The like results for `O=C(NCC1CCCCC1)c1cn(C2COC2)c2cccc(Cl)c12` [Compound 48, 4-chloro-N-(cyclohexylmethyl)-1-(oxetan-3-yl)-1H-indole-3-carboxamide] were, in that order, 101 to 500 nM and 101 to 500 nM.
The like results for `O=C(NCC1(O)CCCC(F)(F)C1)c1cn(CCN2CCCC2)c2cccc(Cl)c12` (stereo not shown) [Compound 178, 4-chloro-N-((3,3-difluoro-1-hydroxycyclohexyl)methyl)-1-(2-(pyrrolidin-1-yl)ethyl)-1H-indole-3-carboxamide] were, in that order, 10 to 100 nM and 10 to 100 nM.
In the case of `CC1CC(F)(F)CC(O)(CNC(=O)c2cn(CC(F)(F)F)c3cccc(Cl)c23)C1` (stereo not shown) [Compound 1, 4-chloro-N-((3,3-difluoro-1-hydroxy-5-methylcyclohexyl)methyl)-1-(2,2,2-trifluoroethyl)-1H-indole-3-carboxamide], the IC50 on human P2X7 receptor (setting [2]) was 101 to 500 nM; in test [1] (setting [3]) it was more than 1000 nM.
The like results for `COCCn1cc(C(=O)NCC2(O)CCCCC2O)c2c(Cl)cccc21` (stereo not shown) [Compound 18, 4-Chloro-1-(2-methoxy-ethyl)-1H-indole-3-carboxylic acid (1,2-dihydroxy-cyclohexylmethyl)-amide] were, in that order, more than 1000 nM and more than 1000 nM.
For `O=C(NC[C@]1(O)CCCC(F)(F)C1)c1cn(C[C@@H]2CCCO2)c2cccc(Cl)c12` [Compound 130, 4-chloro-N—(((S)-3,3-difluoro-1-hydroxycyclohexyl)methyl)-1-(((S)-tetrahydrofuran-2-yl)methyl)-1H-indole-3-carboxamide], the IC50 (on human P2X7 receptor; in test [1]) was 10 to 100 nM in each case.
Turning to `O=C(NCC1CCC(F)(F)CC1)c1cn(C2CCOC2)c2cccc(Cl)c12` (stereo not shown) [Compound 114, 4-chloro-N-((4,4-difluorocyclohexyl)methyl)-1-(tetrahydrofuran-3-yl)-1H-indole-3-carboxamide], the IC50 was 10 to 100 nM against human P2X7 receptor and 101 to 500 nM in test [1].
Consider `O=C(NCC1CCC(F)(F)CC1)c1cn(CC2CCCN2)c2cccc(Cl)c12` (stereo not shown) [Compound 158, 4-chloro-N-((4,4-difluorocyclohexyl)methyl)-1-(pyrrolidin-2-ylmethyl)-1H-indole-3-carboxamide], for which the IC50 (at human P2X7 receptor (setting [2]); in test [1] (setting [3])) was less than 10 nM each time.
As for `O=C(NC[C@]1(O)CCCC(F)(F)C1)c1cn(C2COC2)c2cccc(Cl)c12` [Compound 85, (S)-4-chloro-N-((3,3-difluoro-1-hydroxycyclohexyl)methyl)-1-(oxetan-3-yl)-1H-indole-3-carboxamide], the IC50 (at human P2X7 receptor; in test [1]) was 10 to 100 nM each time.
`CC1CC(F)(F)CC(O)(CNC(=O)c2cn(CC3CCCO3)c3cccc(Cl)c23)C1` (stereo not shown) [Compound 138, 4-chloro-N-((3,3-difluoro-1-hydroxy-5-methylcyclohexyl)methyl)-1-((tetrahydrofuran-2-yl)methyl)-1H-indole-3-carboxamide]: the IC50 (on human P2X7 receptor; in test [1]) was 101 to 500 nM in each case.
Regarding `O=C(NCCC1CCCC1)c1cn(C2COC2)c2cccc(Cl)c12` [Compound 82, 4-Chloro-1-oxetan-3-yl-1H-indole-3-carboxylic acid (2-cyclopentyl-ethyl)-amide], the values for the IC50 (at human P2X7 receptor (setting [2]); in test [1]) were less than 10 nM and 101 to 500 nM, respectively.
As for `O=C(NCC1CC(C(F)(F)F)CC(F)(F)C1)c1cn(CC2CCCO2)c2cccc(Cl)c12` (stereo not shown) [Compound 141, 4-chloro-N-((3,3-difluoro-5-(trifluoromethyl)cyclo-hexyl)methyl)-1-((tetrahydrofuran-2-yl)methyl)-1H-indole-3-carboxamide], the IC50 (on human P2X7 receptor; in test [1]) was 10 to 100 nM each time.
For the compound `CC1CC(CNC(=O)c2cn(CC3CCCN3)c3cccc(Cl)c23)CC(F)(F)C1` (stereo not shown) [Compound 157, 4-chloro-N-((3,3-difluoro-5-methylcyclohexyl)methyl)-1-(pyrrolidin-2-ylmethyl)-1H-indole-3-carboxamide], the IC50 on human P2X7 receptor is 10 to 100 nM; in test [1] (setting [3]), less than 10 nM.
Turning to `O=C(NCC1(N2CCN(c3ccccc3)CC2)CCOCC1)c1cn(C2COC2)c2cccc(Cl)c12` [Compound 44, 4-chloro-1-(oxetan-3-yl)-N-((4-(4-phenylpiperazin-1-yl)tetrahydro-2H-pyran-4-yl)methyl)-1H-indole-3-carboxamide], the IC50 against human P2X7 receptor lay within 10 to 100 nM; in test [1], 101 to 500 nM.
